SMILES strings stand for the structures.

Consider three compounds from US20240336638A1, “IMIDAZOLE COMPOUND, AND INTERMEDIATE AND APPLICATION THEREOF” (priority 2021, published 2024).

In test [1] the test system is AA-induced platelet aggregation. Kind of test: Inhibitory effect on AA-induced platelet aggregation in rats in vitro (washed platelets). The note with it: 1*10^−4 M. The test is classed as cell-based, rat. The protocol: Several experimental groups were established, including a blank control group, an AA (arachidonic acid) model control group, and various test compounds. Each test compound had three concentration groups: 10^−3 M, 10^−4 M, and 10^−5 M. The data from the blank and model control group were shared among the different drug concentration groups as a control.
(§1) Male SD rats were anesthetized with 3% chloral hydrate (300 mg/kg) through intraperitoneal injection. After being fixed in a supine position, the skin of the neck was cut about 3 cm, bluntly separated with a hemostat, and the trachea was exposed after the common carotid artery was separated. The distal end of the common carotid artery was ligated with a fine thread, and the proximal end was clamped with an arterial clamp for vascular intubation. After the intubation was fixed, the artery clamp was opened, and the blood was placed into a blood collection tube containing 3.8% trisodium citrate so that the blood was mixed well with the 3.8% trisodium citrate in a volume ratio of 9:1.
The prepared anticoagulant blood was mixed well and centrifuged for 10 minutes at 500 rpm, then the upper layer of plasma was aspirated to obtain platelet-rich plasma (PRP), and the PRP was centrifuged again for 5 minutes at 3,000 rpm. The supernatant was discarded, and the platelet precipitate was obtained, which was washed once with Ca^2+-free HEPES-Tyrode's buffer, then centrifuged at 3,000 rpm for 5 minutes. The supernatant was discarded, and the platelets were resuspended with Ca^2+-free HEPES-Tyrode's buffer to obtain the washed platelets.
First, 300 μL of Ca^2+-containing HEPES-Tyrode's solution was taken into the test cup, put into the test wells, and calibrated by pressing the “PPP” key. Subsequently, 240 μL of the washed platelets were added to the test cup, then added with 30 μL of different concentrations of drug solution, incubated for 10 minutes at 37° C. in a preheated bath, and then put into the test wells. 3 μL of 100× CaCl2 solution (final concentration of 0.2 g/L) and 30 μL of inducer (final concentration of AA of 800 μM) were added to the test wells, and then the “Start” key was pressed immediately. The maximum aggregation rate was recorded every 60 s. The measurement was repeated three times for each concentration for 10 minutes, and the aggregation curve was plotted.
The platelet aggregation inhibition rate was calculated with the following formula:
Inhibition rate (%)=(maximum aggregation rate in the model control group−maximum aggregation rate in the administration group)/maximum aggregation rate in the model control group×100%
All data were expressed as mean±standard deviation (mean±SD). SPSS 22.0 software was used for statistical analysis of the data. Intergroup data were analyzed using one-way ANOVA, with P<0.05 considered as statistically significant and P<0.01 considered as highly significant.

A further test has as its system MCAO/R rats. Description: Therapeutic administration (i.v.) in middle cerebral artery occlusion/reperfusion (MCAO/R) rats. Format: in vivo, rat. The conditions noted are these: for Bleeding time / Brain water content (%) / Cerebral infarction rate (%) / Clotting time / Neurological function score: once a day for 3 days, mean ± SD, n = 8; for Neurological function score: modified Bederson score. The protocol: Male SD rats weighing 250 to 300 g were taken, and the rats in each group fasted for 12 hours before modeling, while water was not restricted. According to the method of Longa et al.^[1], a rat model of MCAO/R was established by occluding the blood flow of internal carotid artery using the thread embolization method. The rats were anesthetized with 3% chloral hydrate (300 mg/kg, 1 mL/100 g body weight) through intraperitoneal injection and fixed in the supine position on the operating table. A midline incision was made in the neck, and the right common carotid artery was isolated using forceps and threaded for later use. The external and internal carotid arteries were isolated from the bifurcation of the common carotid artery. A single thread was threaded through the internal carotid artery, and two threads were threaded through the external carotid artery. Both distal and proximal ends were ligated, and the middle part of the ligation site was cut using ophthalmic scissors. The proximal main trunk of the external carotid artery was isolated and reserved for later use. The prepared cotton thread was used to half-ligate the common carotid artery (tying a slipknot), and the thread prepared for the internal carotid artery was tightened with hemostatic forceps, temporarily occluding the blood flow of the internal carotid artery. A small incision at the proximal main trunk of the external carotid artery was made using ophthalmic scissors, and then, the fishing line was held with straight forceps, inserted from this incision, and slowly advanced through the isolated proximal main trunk of the external carotid artery towards the intracranial direction of the internal carotid artery. The advancement was stopped at a predetermined position, and then the thread of the internal carotid artery that was tightened with the hemostatic forceps was loosened. […] Another thread was threaded and tightened around the proximal main trunk of the external carotid artery and the fishing line that had already been inserted into the predetermined position. The half-ligated thread on the common carotid artery was then loosened, and the skin was subsequently sutured. After 2 hours of ischemia, a small section of the fishing line was pulled out. […] After rats in the blank control group were anesthetized, only the bifurcation of the internal and external carotid arteries was exposed without the occlusion of the MCA.
Successfully modeled rats (neurological function score of 3 after reperfusion) were taken and divided into 20 groups (8 rats for each) according to the random number table method. The groups were divided into a model control group, three dose groups (high, 12 mg/kg, 2.4 mg/mL; medium, 6 mg/kg, 1.2 mg/mL; low, 3 mg/kg, 0.6 mg/mL) for each of the six test compounds, and a positive drug Ozagrel group (6 mg/kg, 1.2 mg/mL), respectively. Both blank and model control groups were administered equal volumes of mixed solvents, and the rats in each group were administered by tail vein injection (i.v.) 2 hours after reperfusion, once a day for 3 consecutive days, with a volume of 0.5 mL/100 g body weight.
Ten minutes after the last administration, the neurological function of the animals was graded according to the modified Bederson scoring method. The standard is as follows[2]: • 0 point: no neurological symptoms; • 1 point: when the rat is suspended by lifting its tail, the forelimb on the surgical side of the rat was flexed and pressed against the chest wall; • 2 points: on a smooth plane, when the rat is pushed from the surgical side to the opposite side, the resistance is less than when it is moved to the same side; • 3 points: the animal moves around or in circles when moving freely; • 4 points: flaccid paralysis, no spontaneous movement of limbs.
After Bederson scoring, the rats were executed by cervical dislocation, and the whole brain was removed and weighed. After weighing, the whole brain was placed in a −20° C. refrigerator for 20 minutes. […]

The subject of test [2] is AA-induced platelet aggregation. Description: Inhibitory effect on AA-induced platelet aggregation in rabbits in vitro. The test is classed as cell-based, rabbit. The conditions noted are these: 1*10^−4 M; text conclusion (2). The method, then: Several experimental groups were established, including a blank control group, an AA model control group, and various test compounds. Each test compound had three concentration groups: 10^−3 M, 10^−4 M, and 10^−5 M.
as §1, with “Rabbits were” for “Male SD rats were”, “with a 20% urethane solution (5 mL/kg body weight)” for “with 3% chloral hydrate (300 mg/kg)”, “about 6” for “about 3”, “9:1. […]” for “9:1.”
First, 300 μL of PPP was added to the test cup and put into the test wells, and calibrated by pressing the “PPP” key. […] The maximum aggregation rate within 4 minutes was measured. […]
The platelet aggregation inhibition rate was calculated with the following formula: […]
All data were expressed as mean standard deviation (mean b SD). […] Intergroup data were analyzed using one-way ANOVA, with P<0.05 considered as statistically significant and P<0.01 considered as highly significant.

The mark [3] stands for this setting: medium dose 6 mg/kg i.v. (Ozagrel group 6 mg/kg).

With `O=C(O)[C@@H]1C[C@H]1c1ccc(Cn2cnc(Cl)c2)cc1F` [Compound 13, (1R,2R)-2-(4-((4-Chloro-1H-imidazol-1-yl)methyl)-2-fluorophenyl)cyclopropane-1-carboxylic acid], in test [1], the “significant inhibition of AA-induced platelet aggregation” value was “can significantly inhibit”. In the test on MCAO/R rats (high dose 12 mg/kg i.v.), the “Bleeding time” value was determined as 301.25 ± 46.40 s, the “Brain water content (%)” value was determined as 80.73 ± 1.10%, the “Cerebral infarction rate (%)” value was found to be 14.30% and the “Clotting time” value amounted to 163.63 s. Also, the Neurological function score in the test with MCAO/R rats (high dose 12 mg/kg i.v.) turned out to be 1.50 ± 0.53. The infarct size result in the test on MCAO/R rats (low dose) is given as “can also significantly reduce”. Besides, in the test on MCAO/R rats (low dose 3 mg/kg i.v.), the “Bleeding time” value came out at 303.00 ± 39.59 s, the “Brain water content (%)” value is given as 80.87 ± 2.84%, the “Cerebral infarction rate (%)” value stood at 23.02% and the “Clotting time” value is 146.94 ± 24.73 s. In the test on MCAO/R rats (low dose 3 mg/kg i.v.), this compound had a Neurological function score of 2.00 ± 0.53. Also, the “coagulation time of rats” value in the test with MCAO/R rats (medium and high doses) was “can significantly prolong”. Also, in the test on MCAO/R rats (setting [3]), the “Bleeding time” value was found to be 314.50 ± 41.83 s, the “Brain water content (%)” value was 80.58 ± 1.56%, the “Cerebral infarction rate (%)” value amounted to 22.15% and the “Clotting time” value was 164.56 s. Besides, the Neurological function score with MCAO/R rats (setting [3]) is on record as 1.88 ± 0.64.
For the compound `O=C(O)C1CN(c2ccc(Cn3ccnc3)nc2)C1` [Compound 56, 1-(6-((1H-Imidazol-1-yl)methyl)pyridin-3-yl)azetidine-3-carboxylic acid], in test [2], the “significant inhibition of AA-induced platelet aggregation” value is listed as “can significantly inhibit”.
The same measure, in the same setting: to `O=C(O)/C=C/c1ccc(Cn2cnc(Cl)c2)cn1` [Compound 59, (E)-3-(5-((4-Chloro-1H-imidazol-1-yl)methyl)pyridin-2-yl)acrylic acid] belongs “can significantly inhibit”.
